From patent US20080288176A1 (priority 2005, published 2008)
Where two headings read alike, the source gives them in different places.

What was measured:
[1] = Hydrolysis in human liver microsomes; assay type: in vitro ADME
From the text: The time course of the prodrug, its active metabolites and nitric oxide release can be simulated using a series of in vitro and in silico inputs. The stability of each component in the gastrointestinal lumen is estimated using data collected from artificial gastric and intestinal juice. Intestinal metabolism is estimated using intestinal microsomes and absorption rate is estimated using permeability data collected from a cell monolayer such as Caco-2. Hepatic elimination is estimated using liver microsomes and stability in plasma is calculated using degradation of each component in the media. Plasma protein binding can either be measured using a standardized in vitro method or it can be estimated using an in silico method. The distribution of each component in various parts of the body is estimated using an in silico method. The rate of nitric oxide release is estimated using an in vitro endothelial cell model. The time course of prodrug, its active metabolites and nitric oxide can be simulated in human and animal using this physiologically based pharmacokinetic/pharmacodynamic model provided that the corresponding in vitro and in silico data are used as inputs.
The selection of in vitro tests is designed to provide parameters for the above mentioned model. The use of an inappropriate test would result in wrong predictions.
(§1) Representative in vitro tests or in silico estimates include: (a) pKa estimation or measurement; (b) Log P measurement or in silico estimation; (c) Solubility in various physiological fluids; (d) Permeability. Caco-2 and/or NOVOKIN's proprietary animal and human cell lines can be used to obtain this parameter; (e) Metabolic rate in the intestine and liver. Human or animal intestinal microsomes, S9 fraction, and cytosol can be used for this purpose. Human or animal hepatocytes, liver microsomes, S9 fraction, and cytosol can also be used; (f) Hydrolysis in human or animal plasma; (g) Serum or plasma protein binding. It can be measured in vitro or estimated in silico; (h) The rate of NO release; (i) Existing pharmacokinetic and pharmacodynamic data of NSAID or a biocompatible agent; (j) Existing NO release rate of known diazeniumdiolate if applicable; (k) Stability in gastric and intestinal environment; and (l) In silico volume of distribution estimation.
The simulation begins with no material in all compartments except for the initial bolus in one compartment (typically the stomach compartment). The simulation then estimates the changing distribution of the material with time.

[2] = Hydrolysis in rat intestinal microsomes; assay type: in vitro ADME
From the text: (§2) The physiologically based pharmacokinetic/pharmacodynamic model of the present invention contains a series of compartments that describe the time course of a nonsteroidal anti-inflammatory prodrug, its active metabolites and nitric oxide release in intestine, liver, kidneys, blood/plasma and heart after prodrug administration. The time course of the prodrug, its active metabolites and nitric oxide release can be simulated using a series of in vitro and in silico inputs. The stability of each component in the gastrointestinal lumen is estimated using data collected from artificial gastric and intestinal juice. Intestinal metabolism is estimated using intestinal microsomes and absorption rate is estimated using permeability data collected from a cell monolayer such as Caco-2. Hepatic elimination is estimated using liver microsomes and stability in plasma is calculated using degradation of each component in the media. Plasma protein binding can either be measured using a standardized in vitro method or it can be estimated using an in silico method. The distribution of each component in various parts of the body is estimated using an in silico method. The rate of nitric oxide release is estimated using an in vitro endothelial cell model. The time course of prodrug, its active metabolites and nitric oxide can be simulated in human and animal using this physiologically based pharmacokinetic/pharmacodynamic model provided that the corresponding in vitro and in silico data are used as inputs.
as §1
(§3) Whenever in vitro estimate is attainable, the in vitro results will be used, for example, plasma protein binding. Methods reported by Bowalgaha & Miners (2001), Martignoni et al. (2006), Tong et al. (2001) and Thulesen et al. (1999) were used for in vitro and in vivo scale-up for clearance in the intestine, absorption rate constant and hepatic clearance. The simulation begins with no material in all compartments except for the initial bolus in one compartment (typically the stomach compartment). The simulation then estimates the changing distribution of the material with time.

[3] = Stability in gastric environment (gastric decay rate); assay type: in vitro ADME
From the text: as §2, §1

[4] = Hydrolysis in various enzymatic preparations (rat and human intestinal and liver microsomes)
[5] = Hydrolysis in human intestinal microsomes; assay type: in vitro ADME
From the text: as §2
The selection of in vitro tests is designed to provide parameters for the above mentioned model. The use of an inappropriate test would result in wrong predictions. For example, Knaus et al. (2005) used guinea pig serum and porcine esterases to hydrolyze their O^2-substituted diazeniumdiolate derivatives of ASPIRIN, as disclosed in U.S. Ser. No. 60/681,842. These tests provided very little information in terms of in vivo human NO-NSAID metabolism rate and the extent to which metabolic conversion to NO donor and NSAID occurred. […] The half-life values were less than one minute. Based on these observations, it has become apparent that prior to entering the systemic circulation, it is likely that the NO-NSAID would have been hydrolyzed in the enterocytes and little or no NO-NSAID would have been detected in the blood stream. Furthermore, the release of NO will commence immediately once the NO donor is detached from the NSAID.
as §1, §3

[6] = Hydrolysis in rat liver microsomes; assay type: in vitro ADME
From the text: as §2, §1, §3

Hydrolysis in rat plasma = assay type: in vitro ADME; conditions: NO-AA formed from the prodrug
From the text: as §2, §1

[7] = Stability in intestinal lumen (decay rate); assay type: in vitro ADME
From the text: as §2, §1

[8] = Enzymatic hydrolysis in liver microsomal preparations (LC-MS); assay type: in vitro ADME; conditions: liver microsomal preparations
Procedure: (§4) The sensitivity of the prodrug 3 towards enzymatic hydrolysis was evaluated by LC-MS. Liver and intestinal microsomal preparations were used. […] However, these rates were slower than the enzymatic hydrolysis rates determined for the conversion of 1→4 and 2→5 (complete hydrolysis observed in 10 and 30 minutes respectively in liver microsomal preparations).

[9] = Enzymatic hydrolysis in intestinal microsomal preparations (LC-MS); assay type: in vitro ADME; conditions: after 2 hours
Procedure: as §4

[10] = Chemical stability (loss of diazeniumdiolate) in phosphate buffer; assay type: physicochemical
Procedure: They varied only in the nitrogen substituent of the amino acid, i.e. free amine (1), acetyl (2) and pivaloyl (3) groups. Their chemical stability was evaluated in phosphate buffer at different pH's over a 30 minute period (Table 11).

[11] = Rat; estimated from Table II - Runkle, 1972; cited from earlier work
male Wistar rats [12] = experiment: Gastric ulcer index after oral dosing; assay type: in vivo, rat
Procedure: (§5) Table 1 is a summary of the protocol for a study which was conducted in male Wistar rats weighing 275-300 grams. The animals were allowed to acclimatize for at least five days prior to the commencement of the study. The study protocol was approved by the local animal ethics committee.
(§6) The animals were fasted overnight prior to test substance administration. The test substance was administered orally by gavage on the morning of the study day. All test animals had blood collected during the test period in both EDTA (ethylenediaminetetraacetic acid) tubes and SST (Serum Separator Tubes) at 1, 3 and 6 hours after dosing. Blood was collected into EDTA tubes only at 1 and 3 hours by tail tip amputation. Volume of blood collected was between 0.5 and 1 mL at each of these collections. The final collection was by puncture of the abdominal vena cava under isoflurane general anesthesia. Final blood collection was targeted as follows: 1st EDTA #1—1.5 mL; 2nd SST—1.5 mL; 3rd EDTA #2—as much as possible.
Each animal from all groups underwent a full necropsy under the supervision of a board certified veterinary pathologist. The stomach of each rat was cut along the greater curvature, contents removed into a polypropylene (Falcon) tube, the mucosa rinsed with saline and any obvious ulcers or erosions were measured along the longest axis. This measurement was recorded for each ulcer or erosion observed in each stomach. The falcon tubes and their contents were frozen at −80° C. and shipped to Novokin on dry ice for analysis.
The aggregate length of all gastric ulcers found in a given animal was calculated. The mean aggregate ulcer length across animals in a group was calculated. This mean value was reported as the ulcer index for that group.
The ulcer index of each modified drug was compared with the ulcer index of its associated parent drug and the controls using analysis of variance and Duncan's multiple range test for pairwise comparisons. Statistical analysis was done using SAS® (SAS Institute Inc., Cary, N.C.).

male Wistar rats [13] = experiment: Urine N-acetylglucosaminidase to creatinine ratio (distal tubule toxicity); assay type: in vivo, rat; conditions: oral gavage, urine collected for 6 hours
Procedure: as §5
(§7) All test animals, housed in metabolic cages, had urine collected over wet ice for 6 hours after dosing. Aliquots of the urine from each animal were collected to determine creatinine concentration. The remainder of the urine was centrifuged at 1000 g for 10 minutes. The supernatant was collected and mixed with analytical grade ethylene glycol at a rate of 0.4 mL ethylene glycol per 1 mL urine supernatant. The ethylene glycol/urine mixture was stored at −80° C. until analysis.

[14] = Serum nitrate concentration (NO release) after oral dosing; assay type: in vivo, rat; conditions: male Wistar rats, oral gavage, at 6 hours
Procedure: as §5, §6
EDTA samples were centrifuged, and the plasma portion was collected and frozen at −80° C. SST samples were incubated at 37° C. for approximately 45 minutes, centrifuged, and the serum was collected and frozen at −80° C. until analysis.

[15] = test system: cardiac tissue prostacyclin (PGI2) to thromboxane A2 (TXB2) ratio; experiment: Cardiac tissue prostacyclin to thromboxane ratio; assay type: in vivo, rat; conditions: male Wistar rats
From the text: (§8) Myocardial infarction and ischemic events in high risk patients led one of the most popular COX-2 inhibitors to its demise (Bresalier et al., 2005). Non-selective NSAIDS may also cause similar problems due to their ability to inhibit COX-2. […] Adenosine diphosphate (ADP) generation is an indicator of myocardial infarction which has no connection with the arachidonic acid cascade (Borna et al., 2005). […] Long term NSAID use has been linked to kidney damage and hypertension (Zafirovska et al., 1993). […] This was associated with an increase in the urine the ratio of alanine-amino-peptidase (AAP) and creatinine.
as §5
All rats were euthanized by removal of the heart 6 hours after initial dosing, following final blood collections. Immediately after terminal blood collections were complete, the thorax was opened and the heart removed. The heart was cut in half longitudinally. Half of the heart was placed in formalin for histological examination. The other half was quickly rinsed in saline and then freeze-clamped (crushed between the jaws of a pair of modified tongs, cooled by liquid nitrogen). An entire kidney was freeze-clamped. The other kidney was left in situ for examination by the pathologist. Freeze-clamped tissues were wrapped in labeled aluminum foil and stored in liquid nitrogen until they could be transferred to a −80° C. freezer. Freeze-clamped tissues were shipped on dry ice to NOVOKIN for analysis.

[16] = Human; estimated from Table II - Runkle, 1972; cited from earlier work
male Wistar rats [17] = experiment: Urine alanine aminopeptidase to creatinine ratio (proximal tubular kidney damage); assay type: in vivo, rat; conditions: oral gavage, urine collected for 6 hours
From the text: as §8, §5, §7

Structure (SMILES): COc1ccc2cc(C(C)C(=O)OCOC(=O)C(CCC(=O)OCON=[N+]([O-])N(C)C)NC(=O)C(C)(C)C)ccc2c1 (stereo not shown) [CMD 114]
- liver molar percent conversion to Naproxen [1]: 50%
- liver microsomal activity ([1]; model input): 721224 mL/min/organ
- intestinal molar percent conversion to Naproxen [2]: 42%
- intestinal microsomal activity ([2]; model input): 9 mL/min/organ
- gastric decay rate constant ([3]; Human): 0 /mint
- gastric decay rate constant ([3]; Rat): 0 /mint
- Stability of the NO-AA formed (in words) ([4]; intestinal and liver microsomes of human and rats): relatively stable
- Initial loss of the prodrug candidate (in words) ([4]; various enzymatic preparations): rapid initial loss
- intestinal molar percent conversion to Naproxen [5]: 78%
- intestinal microsomal activity ([5]; model input): 5006 mL/min/organ
- liver molar percent conversion to Naproxen [6]: 60%
- liver microsomal activity ([6]; model input): 7667 mL/min/organ
- Hydrolysis of the NO-AA in rat plasma (in words) (Hydrolysis in rat plasma): relatively fast rate
- NO-AA half-life in plasma (Hydrolysis in rat plasma; Rat): 3.8 min
- intestinal lumen decay rate constant ([7]; Human): 0.67 min⁻¹
- intestinal lumen decay rate constant ([7]; Rat): 0.67 min⁻¹

Structure (SMILES): COc1ccc2cc(C(C)C(=O)OC3CC(C(=O)OCO/N=[N+](\[O-])N(C)C)N(C(=O)C(C)(C)C)C3)ccc2c1 (stereo not shown) [Compound 3]
- Time to complete hydrolysis (cleavage of the diazeniumdiolate) [8]: 2 h
- Conversion to NSAID-amino acid (cleavage of the diazeniumdiolate) [9]: 50%
- Stability (loss of diazeniumdiolate), pH 2.5 ([10]; 30 min, pH 2.5): ✓
- Stability (loss of diazeniumdiolate), pH 5.0 ([10]; 30 min, pH 5.0): ✓
- Stability (loss of diazeniumdiolate), pH 7.0 ([10]; 30 min, pH 7.0): ✓
- Chemical stability (in words) ([10]; pH range 2.5-7.0, 30 minute period): stable

Structure (SMILES): COc1ccc2cc([C@H](C)C(=O)O)ccc2c1 [NAP, naproxen]
- liver microsomal activity [11]: 0.0075 mL/min/organ
- Ulcer Indices, Mean (male Wistar rats [12]; oral gavage, naproxen 250 mg/kg or molar equivalent (ROF 250 mg/kg), 6 h after dosing, mean aggregate gastric ulcer length): 4.282
- Ulcerogenicity (in words) (male Wistar rats [12]; oral, 6 h): severely ulcerogenic
- Urine NAG/Cr values, Mean (male Wistar rats [13]): 30.865
- Serum Nitrate Concentrations, Mean [14]: 55.167
- PGI2 and TXA2 levels (in words) ([15]; cardiac tissue): lowered both PGI2 and TXA2 levels
- Cardiac Tissue PGI2/TXB2, Mean ([15]; oral gavage, heart removed 6 hours after dosing): 4.544
- liver microsomal activity [16]: 0.0092 mL/min/organ
- AAP/Cr (urine alanine aminopeptidase to creatinine), Mean (male Wistar rats [17]): 263.788
